According to article PMC5094572, “A β‐mannan utilization locus in Bacteroides ovatus involves a GH36 α‐galactosidase active on galactomannans” (Febs Letters, 2016):

Test system: T1, BoGal36A
T1 construct: gene Bacova_02091; predicted signal peptide removed, C-terminal His6 tag kept, pET28b+, E. coli BL21(DE3); tetramer (SEC 290 kDa)
Experiment: continuous assay, p-nitrophenol release at […] nm, Michaelis-Menten fit
Format: biochemical, Bacteroides ovatus
Conditions: pH 6.0, 37 °C; 50 mM sodium citrate; 0.1-5 mM substrate

Km: 132 ± 20 µM
Compound: O=[N+]([O-])c1ccc(O[C@H]2O[C@H](CO)[C@H](O)[C@H](O)[C@H]2O)cc1 [pNP-α-gal]
